Data published in PubChem BioAssay (NCI).
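48-hour exposure; five concentrations; linearly interpolated endpoints. At the GI50, growth is halved. At the TGI there is no net growth.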

Key:
Assay in all cases: growth of human tumour cells (NCI), 48 h
SNB-19 CNS = tested on: SNB-19 CNS
MDA-MB-435 = tested on: MDA-MB-435
OVCAR-3 ovarian = tested on: OVCAR-3 ovarian
MCF7 breast = tested on: MCF7 breast
UO-31 renal = tested on: UO-31 renal
EKVX NSCLC = tested on: EKVX NSCLC
SW-620 colon = tested on: SW-620 colon
A549 NSCLC = tested on: A549 NSCLC
MALME-3M melanoma = tested on: MALME-3M melanoma
SK-MEL-5 melanoma = tested on: SK-MEL-5 melanoma

| SMILES | GI50 (SNB-19 CNS) [µM] | TGI (SNB-19 CNS) [µM] | GI50 (MDA-MB-435) [µM] | TGI (MDA-MB-435) [µM] | GI50 (OVCAR-3 ovarian) [µM] | TGI (OVCAR-3 ovarian) [µM] | GI50 (MCF7 breast) [µM] | TGI (MCF7 breast) [µM] | GI50 (UO-31 renal) [µM] | TGI (UO-31 renal) [µM] | GI50 (EKVX NSCLC) [µM] | TGI (EKVX NSCLC) [µM] | GI50 (SW-620 colon) [µM] | TGI (SW-620 colon) [µM] | GI50 (A549 NSCLC) [µM] | TGI (A549 NSCLC) [µM] | GI50 (MALME-3M melanoma) [µM] | TGI (MALME-3M melanoma) [µM] | GI50 (SK-MEL-5 melanoma) [µM] | TGI (SK-MEL-5 melanoma) [µM] |
| --- | --- | --- | --- | --- | --- | --- | --- | --- | --- | --- | --- | --- | --- | --- | --- | --- | --- | --- | --- | --- |
| O=C(O)Cn1c2c(c3c(O)cccc31)C(=O)c1ccccc1-2 | > 100 | > 100 | > 100 | > 100 | > 100 | > 100 | > 100 | > 100 | > 100 | > 100 | 3.2 | > 100 | > 100 | > 100 | > 100 | > 100 | > 100 | > 100 | > 100 | > 100 |
| CC(=O)Oc1c(C)c2c(c3ccccc13)OC(C)(C)C2 |  | 69.7 |  | 33.2 |  | 52 |  | 35.4 |  | 33.1 |  | 34 |  | 35.8 |  | 33.9 |  | 30 |  | 22.9 |
| COc1ccc2c(CCNS(=O)(=O)c3ccccc3)c(C(C)=O)[nH]c2c1 |  | > 100 |  | > 75.6 |  | > 100 |  | > 100 |  | > 100 |  | > 100 |  | > 100 |  | > 100 |  | > 100 |  | > 68.1 |
| CN1C(=O)C23CCCCC2CC1(c1ccccc1)S3 (stereo not given) |  | > 100 |  | > 100 |  | > 100 |  | > 100 |  | > 100 |  | > 100 |  | > 100 |  | > 100 |  | > 100 |  | > 100 |
| CC(=O)Nc1ccc2cc3[nH]c4cc(NC(C)=O)ccc4c3nc2c1 |  | > 100 |  | > 100 |  | > 100 |  | > 100 |  | > 100 |  | > 100 |  | > 100 |  | > 100 |  | > 100 |  | > 100 |
| NC(N)=NS(=O)(=O)c1ccc(NC(=O)c2ccc3[nH]c4ccccc4c(=O)c3c2)cc1 |  | > 100 |  | > 100 |  | > 100 |  | > 100 |  | > 100 |  | > 100 |  | > 100 |  | > 100 |  | > 100 |  | > 100 |
| Cc1ccc(C)n1-n1c(-c2ccccc2)n[nH]c1=O |  | > 100 |  | 53.6 |  | > 100 |  | > 100 |  | > 100 |  | > 100 |  | > 100 |  | > 100 |  | > 100 |  | > 100 |
| O=C(Nn1cnn2c(=O)c3ccccc3nc2c1=O)c1ccccc1 |  | > 100 |  | > 100 |  | > 100 |  | > 100 |  | > 100 |  | > 100 |  | > 100 |  | > 100 |  | > 100 |  | > 100 |
| COc1ccccc1NC(=S)Nc1cc(C)ccn1 |  | > 100 |  | > 100 |  | > 100 |  | > 100 |  | > 100 |  | > 100 |  | > 100 |  | > 100 |  | > 100 |  | > 100 |
| C=C1CC(COc2ccc3c(C)cc(=O)oc3c2)(c2ccccc2)OC1=O (stereo not given) |  | 29 |  | 8.03 |  | 5.59 |  | 2.71 |  | 14.5 |  | 25.2 |  | 2.31 |  | 25 |  | 1.9 |  | 5.49 |
| CC(=O)O[C@@H]1O[Si](C(C)(C)C)(C(C)(C)C)[C@H](C)[C@H]1C |  | > 100 |  | > 100 |  | > 100 |  | 83 |  | > 100 |  | > 100 |  | > 100 |  | > 100 |  | 90.1 |  | > 100 |
| CN(C)C(=O)C1CCN(Cc2c[nH]c3ccccc23)CC1 |  | > 100 |  | > 100 |  | > 100 |  | > 100 |  | > 100 |  | > 100 |  | 30.7 |  | > 100 |  | > 100 |  | > 100 |
| COc1ccc2c(c1)C(N)=C(Cc1ccncc1)C2=O |  | > 100 |  | > 100 |  | > 100 |  | > 100 |  | > 100 |  | > 100 |  | > 100 |  | > 100 |  | > 100 |  | > 100 |
| COC1(CC[C@H](C)COC2OC(CO)C(O)C(O)C2O)O[C@H]2C[C@H]3[C@@H]4CC=C5C[C@@H](OC6OC(CO)C(O)C(OC7OC(CO)C(O)C(O)C7O)C6OC6OC(C)C(O)C(O)C6O)CC[C@]5(C)[C@H]4CC[C@]3(C)[C@H]2[C@@H]1C (stereo not given in full) |  | 18.4 |  | 4.24 |  | 33.1 |  | 37.7 |  | 4.36 |  | > 51 |  | 5.87 |  | 7.27 |  | 6.11 |  | 16.9 |
| COc1ccc(N2C(=O)/C(=C\c3cccc(Oc4ccccc4)c3)SC2c2ccccc2)cc1 (stereo not given) |  | > 100 |  | > 100 |  | > 100 |  | > 100 |  | > 100 |  | > 100 |  | > 100 |  | > 100 |  | > 100 |  | > 100 |
| O=C1CN(c2ccc(Cl)cc2)C(=O)CN1NCNN1CC(=O)N(c2ccc(Cl)cc2)CC1=O |  | > 100 |  | > 100 |  | > 100 |  | > 100 |  | > 100 |  | > 100 |  | > 100 |  | > 100 |  | > 100 |  | > 100 |
